Where “and” joins values, the source holds several entries; their conditions need not be identical. Identical values can stand only once.

The test system of experiment [1] is urogenous smell. The experiment is described as follows: Test Example 10: urogenous smell of rats fed high protein cat food. In kind it is in vivo. Set-up: key: Judged by 4 stage judgement of ++, +, ± and −; Judged by 4 stage judgement of ++, +, ± and −; Judged by 4 stage judgement of ++, +, ± and −; Judged by 4 stage judgement of ++, +, ± and −. The procedure:
As experimental animal, rats were employed, they had been fed with a cat food of high protein content (30%) to excrete urine with a smell inherent in that of cats. To test group I, potassium phytate was administrated in abdominal cavity at a dose of 3mg/day over 5 days and while, to test group II, the compound was given in the similar to the above but at a dose of 30mg/day. To control group, no compound was given.

The subject of experiment [2] is urogenous smell. The experiment can be described thus: Test Example 3: smell of fresh urine of cats, potassium phytate/lactose powder in food. In kind it is in vivo, crossbred mature cats. Set-up: key to Deodorizing Effects 1st day / Deodorizing Effects 3rd day / Deodorizing Effects 5th day / Deodorizing Effects 7th day: 1: No change; 2: Weaken; 3: Almost no recognizable smell. The method, then: A powder composition was prepared by mixing potassium phytate and lactose, which composition containing the phytate in an amount of 24mg/g. The composition was mixed with a powdered food which was […] by crossbred mature cats (8 heads, body weight of about 5kg) in an amount of 1g/head/day based on the composition over 7 days. After 1, 3, 5 and 7 days from the first administration, fresh urine was taken with use of a catheter to immediately check a degree of its smell by 3 judges. […]

[3] abbreviates: test group I: 3mg/day in abdominal cavity over 5 days.
The mark [4] stands for this setting: test group II: 30mg/day in abdominal cavity over 5 days.
[5] abbreviates: cats, powder 24mg/g, 1g/head/day in food.

Turning to `O=P(O)(O)O[C@H]1[C@H](OP(=O)(O)O)[C@@H](OP(=O)(O)O)[C@H](OP(=O)(O)O)[C@@H](OP(=O)(O)O)[C@H]1OP(=O)(O)O` [potassium phytate, Potassium phytate], in experiment [1] (setting [3]), the “Urogenous Smell 3rd day” value is reported as “+”, the “Urogenous Smell 6th day” value is “±” and the “Urogenous Smell 9th day” value was “+”. Besides, in experiment [1] (setting [4]), the “Urogenous Smell 3rd day” value was “±”, the “Urogenous Smell 6th day” value is “±” and the “Urogenous Smell 9th day” value is reported as “+”. Further, in experiment [2] (cats (8 heads), powder 24mg/g, 1g/head/day in food, 1st day), the “Efficiency 1st day” value is on record as 0/8. The “Efficiency 3rd day” value in experiment [2] (cats (8 heads), powder 24mg/g, 1g/head/day in food, 3rd day) is 2/8. The “Efficiency 5th day” value in experiment [2] (cats (8 heads), powder 24mg/g, 1g/head/day in food, 5th day) is given as 8/8. Besides, the “Efficiency 7th day” value in experiment [2] (cats (8 heads), powder 24mg/g, 1g/head/day in food, 7th day) was 8/8. Also, in experiment [2] (setting [5]), the “deodorizing effect of the compound appears” value was “by third day” and the urogenous smell disappeared result is on record as “on fifth day”. Further, in experiment [2] (individual cat, powder with lactose 24mg/g, 1g/head/day in food over 7 days, 1st day), the “Deodorizing Effects 1st day” value was 1 (4×) and 2 (4×). Also, the “Deodorizing Effects 3rd day” value in experiment [2] (individual cat, powder with lactose 24mg/g, 1g/head/day in food, 3rd day) is 3 (2×) and 2 (6×). Besides, the “Deodorizing Effects 5th day” value in experiment [2] (individual cat, powder with lactose 24mg/g, 1g/head/day in food, 5th day) came out at 3. Moreover, the “Deodorizing Effects 7th day” value in experiment [2] (individual cat, powder with lactose 24mg/g, 1g/head/day in food, 7th day) came to 3.

The record behind these values is patent EP0326963B1, “Deodorant as well as deodorizing food, drink and seasoning” (priority 1988, dated 1989).
